Laboratory results: publication PMC7616174, “Development of Novel 4-Arylpyridin-2-one and 6-Arylpyrimidin-4-one Positive Allosteric Modulators of the M1 Muscarinic Acetylcholine Receptor” (ChemMedChem, 2020)

Biological target: T1, hM1 mAChR (Homo sapiens, UniProt P11229)
T1 construct: expressed in transfected cells
T1 sequence (P11229 1-460): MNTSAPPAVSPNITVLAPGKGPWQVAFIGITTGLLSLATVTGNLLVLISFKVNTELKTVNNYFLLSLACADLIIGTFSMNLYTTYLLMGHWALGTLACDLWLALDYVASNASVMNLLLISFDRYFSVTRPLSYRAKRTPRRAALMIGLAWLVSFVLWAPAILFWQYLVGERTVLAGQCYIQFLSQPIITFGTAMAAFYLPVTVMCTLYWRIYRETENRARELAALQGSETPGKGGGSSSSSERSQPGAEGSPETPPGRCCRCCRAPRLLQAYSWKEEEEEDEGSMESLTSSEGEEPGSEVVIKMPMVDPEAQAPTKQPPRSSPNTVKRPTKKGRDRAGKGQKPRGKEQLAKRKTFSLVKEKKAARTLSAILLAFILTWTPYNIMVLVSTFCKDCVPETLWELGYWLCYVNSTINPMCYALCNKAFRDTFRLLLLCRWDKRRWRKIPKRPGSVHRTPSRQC
Assay: IP1 accumulation assay (ACh concentration-response curves in absence or presence of modulator)
Format: cell-based
Conditions: FlpIn CHO hM1 cells, mean ± SEM, 3 experiments; for ΔpEC50 [1 μM]: change in ACh pEC50 in presence of M1 PAM compared to control curve / activation at 1 µM: 1 μM modulator; for activation at 1 µM: read-out: Δbaseline [1 μM]: change in basal response in presence of M1 PAM compared to control curve; for activation at 10 µM: read-out: Δbaseline [10 μM]: change in basal response in presence of M1 PAM compared to control curve
Protocol: Functional activity of the synthesized analogues as racemic mixtures was investigated in IP1 accumulation assays at the M1 mAChR, as described previously.[13–14] ACh concentration-response curves were generated in the absence or presence of a 1 and 10 μM concentration of each modulator. The change in baseline activity (Δbaseline) is an approximate measure of direct allosteric agonism (τB), whereas the pEC50 shift (ΔpEC50) is an approximate measure of functional cooperativity (αβ) of each modulator with ACh in the investigated signalling pathway. We aimed to identify modulators with various degrees of allosteric agonism and modulatory effects on ACh response, as these could generate distinct in vivo outcomes for applications in different conditions in the CNS or gastrointestinal (GI) tract.[[10g,h,j]]
The compounds were then fully characterised in two functional assays (Figure 2C and D); the Gq-coupled IP1 accumulation assay (Figure S2), which was used for the initial screening of the compounds, and a β-arrestin 2 recruitment assay (Figure S3). The operational efficacy (τB) values for the modulators and their functional cooperativity estimates with ACh (logαβACh) at both signalling pathways were estimated by applying an operational model of allosterism and agonism to the data [Eq. (3)],[16] and are listed in Table 5.
FlpIn CHO cells stably expressing the hM1 mAChR were seeded at 25000 per well of 96-well transparent cell culture plates and grown overnight. […] Cells were then stimulated with increasing concentration of ACh in the absence or presence of increasing concentrations of each modulator for 1 h at 37°C. […] Seven μL of cell lysates were transferred into wells of 384-well Proxiplates (Perki-nElmer Life Sciences), and IP1 levels were measured using the IP-One assay kit (Cisbio, Codolet, France). […] The signal was expressed as the HTRF ratio, interpolated from the standard curve, and normalized to the maximum response to ACh.
Changes in both baseline and pEC50 were quantified by subtracting the estimates at each M1 PAM concentrations with the control values. Propagation of the error on baseline and potency values were determined as follows [Eq. (1)]: σΔ=σPAM2+σcont.2 where σΔ is the standard error of the mean (SEM) for the change in value, and σPAM and σcont. are the SEM from the three-parameter logistic equation analysis in presence or absence of M1 PAM, respectively.
Functional interaction studies between ACh and allosteric modulators in IP1 and β-arrestin 2 recruitment assays were analysed according to a three-parameter logistic equation or the following operational model of allosterism and agonism [Eq. (3)].[16] E=Basal+(Em−Basal)([A](KB+αβ[B])+τB[B]EC50)^n/EC50n(KB+[B])^n+([A](KB+αβ[B])+τB[B]EC50)^n where Em is the maximal possible system response, and Basal is the response in the absence of agonist. [A] and [B] are concentrations of orthosteric and allosteric ligands, respectively. KB is the equilibrium dissociation constant of allosteric ligand, and EC50 is the concentration of orthosteric agonist required to achieve half maximal response. α and β represent the magnitude of the allosteric effects on orthosteric ligand affinity and efficacy, respectively; τB is the efficacy of allosteric ligand, and n is the slope factor of the transducer function that links occupancy to response.

ΔpEC50 [1 μM]: change in ACh pEC50 in presence of M1 PAM compared to control curve	activation at 1 µM	ΔpEC50 [10 μM]: change in ACh pEC50 in presence of M1 PAM compared to control curve (10 μM modulator)	activation at 10 µM (10 μM modulator)	Compound	Δbaseline [10 μM]: change in basal response in presence of M1 PAM compared to control curve (10 μM modulator)
–	100%	–	100%	O=c1cc(-c2ccccc2OCc2ccc(-n3cccn3)cc2)ncn1C1CCCCC1O (centres unmarked) [Compound 27c, 6-(2-((4-(1H-Pyrazol-1-yl)benzyl)oxy)phenyl)-3-(2-hydroxycyclo-hexyl)pyrimidin-4(3H)-one]	–
0.02±0.06	1.37 ± 1.6%	–	5.99 ± 1.7%	COc1cccc(OCc2ccc(-c3cnn(C)c3)cc2)c1-c1cc(=O)n([C@H]2CCCC[C@@H]2O)cn1 (racemic) [Compound 26c, 3-(2-Hydroxycyclohexyl)-6-(2-methoxy-6-((4-(1-methyl-1H-pyra-zol-4-yl)benzyl)oxy)phenyl)pyrimidin-4(3H)-one]	–
–	5 ± 1.7%	0.17±0.06	-1.9%	Cn1cc(-c2ccc(COc3ccccc3-c3ccn(C4CCCCC4)c(=O)c3)cc2)cn1 [Compound 13b, 1-Cyclohexyl-4-(2-((4-(1-methyl-1H-pyrazol-4-yl)benzyl)oxy)phenyl)pyridin-2(1H)-one]	–
0.40±0.24	53.7 ± 3.8%	0.26±0.55	72.9 ± 3.6%	COC1CCCCC1n1cnc(-c2ccccc2OCc2ccc(-c3cnn(C)c3)cc2)cc1=O (centres unmarked) [Compound 28a, 3-(2-Methoxycyclohexyl)-6-(2-((4-(1-methyl-1H-pyrazol-4-yl)benzyl)oxy)phenyl)pyrimidin-4(3H)-one]	–
–	100%	–	100%	Cn1cc(-c2ccc(COc3ccsc3-c3cc(=O)n(C4CCCCC4O)cn3)cc2)cn1 (centres unmarked) [Compound 26b, 3-(2-Hydroxycyclohexyl)-6-(3-((4-(1-methyl-1H-pyrazol-4-yl)benzyl)oxy)thiophen-2-yl)pyrimidin-4(3H)-one]	–
1.49±0.42	82.1 ± 3%	–	100%	Cn1cc(-c2ccc(COc3cccc(O)c3-c3cc(=O)n(C4CCCCC4O)cn3)cc2)cn1 (centres unmarked) [Compound 26d, 6-(2-Hydroxy-6-((4-(1-methyl-1H-pyrazol-4-yl)benzyl)oxy)phenyl)-3-(2-hydroxycyclohexyl)pyrimidin-4(3H)-one]	–

Continued, compound first:

Compound	ΔpEC50 [1 μM]: change in ACh pEC50 in presence of M1 PAM compared to control curve	activation at 1 µM	ΔpEC50 [10 μM]: change in ACh pEC50 in presence of M1 PAM compared to control curve (10 μM modulator)	activation at 10 µM (10 μM modulator)	Δbaseline [10 μM]: change in basal response in presence of M1 PAM compared to control curve (10 μM modulator)
Cn1cc(-c2ccc(COc3ccncc3-c3ccn(C4CCCCC4O)c(=O)c3)cc2)cn1 (centres unmarked) [Compound 7d, 1’-(2-Hydroxycyclohexyl)-4-((4-(1-methyl-1H-pyrazol-4-yl)benzyl)oxy)-[3,4’-bipyridin]-2’(1’H)-one]	0.04±0.09	-1.09%	0.21±0.10	1.24 ± 3%	–
Cn1cc(-c2ccc(COc3cnccc3-c3ccn(C4CCCCC4O)c(=O)c3)cc2)cn1 (centres unmarked) [Compound 7e, 1-(2-Hydroxycyclohexyl)-3’-((4-(1-methyl-1H-pyrazol-4-yl)benzyl)oxy)-[4,4’-bipyridin]-2(1H)-one]	1.17±0.22	41.9 ± 4.4%	1.47±0.35	79.4 ± 2.9%	–
4-(2-(Benzyloxy)phenyl)-1-(2-hydroxycyclohexyl)pyridin-2(1H)-one [Compound 27d]	0.75±0.06	–	1.83±0.11	–	54.6±1.9 % of ACh maximal (Emax) response
Cc1ccc(OCc2ccc(-c3cnn(C)c3)cc2)c(-c2ccn(C3CCCCC3O)c(=O)c2)c1 (centres unmarked) [Compound 7a, 1-(2-Hydroxycyclohexyl)-4-(5-methyl-2-((4-(1-methyl-1H-pyrazol-4-yl)benzyl)oxy)phenyl)pyridin-2(1H)-one]	–	0.47 ± 2%	0.41±0.07	4.4 ± 2%	–
COC1CCCCC1n1ccc(-c2ccccc2OCc2ccc(-c3cnn(C)c3)cc2)cc1=O (centres unmarked) [Compound 14, 1-(2-Methoxycyclohexyl)-4-(2-((4-(1-methyl-1H-pyrazol-4-yl)benzyl)oxy)phenyl)pyridin-2(1H)-one]	0.03±0.06	5.8 ± 1.5%	0.96±0.07	22.1 ± 1.6%	–
Cn1cc(-c2ccc(COc3ccccc3-c3ccc(-c4ccccc4O)cc3)cc2)cn1 [Compound 19, 2“-((4-(1-Methyl-1H-pyrazol-4-yl)benzyl)oxy)-[1,1’:4’,1“-terphenyl]-2-ol]	–	–	0.27±0.06	–	–
Cc1cc(OCc2ccc(-c3cnn(C)c3)cc2)c(-c2ccn(C3CCCCC3O)c(=O)c2)cc1C (centres unmarked) [Compound 7c, 4-(4,5-Dimethyl-2-((4-(1-methyl-1H-pyrazol-4-yl)benzyl)oxy)phenyl)-1-(2-hydroxycyclohexyl)pyridin-2(1H)-one]	–	-1.7%	0.41±0.08	2.8 ± 1.9%	–
Cn1cc(-c2ccc(COc3cccc(O)c3-c3ccn(C4CCCCC4O)c(=O)c3)cc2)cn1 (centres unmarked) [Compound 7g, 4-(2-Hydroxy-6-((4-(1-methyl-1H-pyrazol-4-yl)benzyl)oxy)phenyl)-1-(2-hydroxycyclohexyl)pyridin-2(1H)-one]	0.14±0.19	12.8 ± 4.4%	0.35±0.34	45.8 ± 4.8%	–
Cn1cc(-c2ccc(Cn3cccc(-c4ccn(C5CCCCC5O)c(=O)c4)c3=O)cc2)cn1 (centres unmarked) [Compound 9, 1’-(2-Hydroxycyclohexyl)-1-(4-(1-methyl-1H-pyrazol-4-yl)benzyl)-[3,4’-bipyridine]-2,2’(1H,1’H)-dione]	0.12±0.09	5 ± 2%	0.69±0.08	5.6 ± 2%	–
Cc1ccc(-c2ccn(C3CCCCC3O)c(=O)c2)c(OCc2ccc(-c3cnn(C)c3)cc2)c1 (centres unmarked) [Compound 7b, 1-(2-Hydroxycyclohexyl)-4-(4-methyl-2-((4-(1-methyl-1H-pyrazol-4-yl)benzyl)oxy)phenyl)pyridin-2(1H)-one]	–	3.5 ± 1.9%	0.75±0.08	10.7 ± 2%	–
